Earlier results as cited in patent US12644083B2, “Dual circulation microphysiological system” (CN Bio Innovations Limited, priority 2019, dated 2026).

System: primary human hepatocytes
Conditions: for rate of metabolism (in words): general statement: considered to be slowly metabolised; for test phase required to give measurable changes (metabolism): single loop 3D liver scaffold system

Row | rate of metabolism (in words) | test phase required to give measurable changes (metabolism) [days] | Compound
1 | slowly metabolised | 5 | CC(C)N(CCC(C(N)=O)(c1ccccc1)c1ccccn1)C(C)C (stereo not shown) [disopyramide]
2 | slowly metabolised | 5 | CC(C)(C)NC[C@H](O)COc1nsnc1N1CCOCC1 [timolol]
